Test system: aged-impaired (AI) rats
Test: Radial Arm Maze (RAM) behavioral task, spatial memory retention
Format: in vivo, rat
Details: 3 mg/kg i.p., two-hour delay RAM
Description: The effects of methyl 3,5-diphenylpyridazine-4-carboxylate on the in vivo spatial memory retention of aged-impaired (AI) rats were assessed in a Radial Arm Maze (RAM) behavioral task using vehicle control and four different dosage levels of methyl 3,5-diphenylpyridazine-4-carboxylate (0.1 mg/kg, 0.3 mg/kg, 1 mg/kg and 3 mg/kg, ip). RAM behavioral tasks were performed on eight AI rats. All five treatment conditions (vehicle and four dosage levels) were tested on all eight rats.
The RAM apparatus used consisted of eight equidistantly-spaced arms. An elevated maze arm (7 cm width×75 cm length) projected from each facet of an octagonal center platform (30 cm diameter, 51.5 cm height). Clear side walls on the arms were 10 cm high and were angled at 65° to form a trough. A food well (4 cm diameter, 2 cm deep) was located at the distal end of each arm. Froot Loops™ (Kellogg Company) were used as rewards. Blocks constructed of Plexiglas™ (30 cm height×12 cm width) could be positioned to prevent entry to any arm. Numerous extra maze cues surrounding the apparatus were also provided.
The AI rats were initially subjected to a pre-training test (Chappell et al. Neuropharmacology 37: 481-487, 1998). The pre-training test consisted of a habituation phase (4 days), a training phase on the standard win-shift task (18 days) and another training phase (14 days) in which a brief delay was imposed between presentation of a subset of arms designated by the experimenter (e.g., 5 arms available and 3 arms blocked) and completion of the eight-arm win-shift task (i.e., with all eight arms available).
In the habituation phase, rats were familiarized to the maze for an 8-minute session on four consecutive days. In each of these sessions, food rewards were scattered on the RAM, initially on the center platform and arms and then progressively confined to the arms. After this habituation phase, a standard training protocol was used, in which a food pellet was located at the end of each arm. Rats received one trial each day for 18 days. Each daily trial terminated when all eight food pellets had been obtained or when either 16 choices were made or 15 minutes had elapsed. After completion of this training phase, a second training phase was carried out in which the memory demand was increased by imposing a brief delay during the trial. At the beginning of each trial, three arms of the eight-arm maze were blocked. Rats were allowed to obtain food on the five arms to which access was permitted during this initial “information phase” of the trial. Rats were then removed from the maze for 60 seconds, during which time the barriers on the maze were removed, thus allowing access to all eight arms. […]

COC(=O)c1c(-c2ccccc2)cnnc1-c1ccccc1 [methyl 3,5-diphenylpyridazine-4-carboxylate]
average no. of errors ± SEM in retention test: 1.31±0.40
memory performance relative to vehicle control: significantly improved memory performance
